One test concerns Fov infection. Conditions: transgenic cotton expressing NaD1 vs untransformed parent variety, field trials; cited from earlier work.
Test [1] has as its system Fov hyphae. In words: Detection of reactive oxygen species (DHR123 oxidation). It is filed as cell-based, Fusarium oxysporum f. sp. vasinfectum. The method, then: Fov hyphae were grown as described herein and incubated with 5 μg/mL dihydrorhodamine 123 (Sigma-Aldrich) for 2 h followed by extensive washing with growth medium. […] Fluorescence was then measured on a fluorimeter with excitation and emission wavelengths of 488 nm and 538 nm respectively or visualized by fluorescence microscopy. The experiment was repeated either in the presence of ascorbic acid (10 mM) or 2,2,6,6-tetramethylpiperidine-N-oxyl (TEMPO, 3 mM).

Another test concerns Fov. In words: Effect of metal ions on NaD1 activity against Fov. It counts as cell-based, Fusarium oxysporum f. sp. vasinfectum. Conditions: NaD1 10 μM, growth of Fov. The text has this: (§1) Antifungal activity against Fusarium oxysporum f. sp. vasinfectum (Fov, Australian isolate VCG01111 isolated from cotton; from Wayne O'Neill, Farming Systems Institute, DPI, Queensland, Australia), Thielaviopsis basicola (gift from David Nehl, NSW DPI, Narrabri, Australia), Verticillium dahliae (from Helen McFadden, CSIRO Plant Industry, Black Mountain, Australia), Leptosphaeria maculans (from Barbara Howlett, University of Melbourne, Victoria, Australia) and Aspergillus nidulans (from Michael Hynes, University of Melbourne) was assessed essentially as described in Broekaert et al, 1990. Spores were isolated from sporulating cultures growing in either half-strength potato dextrose broth (PDB) (Fov and T. basicola), Czapeck-Dox Broth (V. dahliae) (Difco Laboratories) or 10% (v/v) clarified V8 medium (L. maculans and A. nidulans) by filtration through sterile muslin. Spore concentrations were determined using a hemocytometer and adjusted to 5×10^4 spores/mL in the appropriate growth medium. Spore suspensions (80 μL) were added to the wells of sterile 96-well flat-bottomed microtitre plates along with 20 μL of filter-sterilized (0.22 μm syringe filter; Millipore) NaD1, or water to give final protein concentrations of 0-10 μM. The plates were shaken briefly and placed in the dark at 25° C. without shaking until the optical density at 595 nm of the water control reached approximately 0.2 (24-72 h depending on growth rate). Hyphal growth was estimated by measuring the optical density at 595 nm using a microtitre plate reader (SpectraMax Pro M2; Molecular Devices). Each test was performed in quadruplicate.
The activity of NaD1 against Fov was examined as described with varying concentrations of CaCl2 (0.1, 0.2, 0.5, 1.0 and 2.0 μM) or MgCl2 (1.0, 2.0, 10, 20 and 50 μM) present in the medium to determine the effects of divalent cations on NaD1 activity.

Test [2] has as its system Fusarium oxysporum f. sp. vasinfectum (Fov). Put plainly: Growth inhibition of Fov by NaD1 (microtitre OD595). It is filed as cell-based. The procedure:
Lyophilized NaD1 (500 μg) was dissolved in 400 μL of stock buffer (200 mM Tris-HCl pH 8.0, 2 mM EDTA, 6 M guanidine-HCl, 0.02% [v/v] Tween-20). Reduction buffer (stock buffer with 15 mM dithiothreitol [DTT]) was added (44 μL) followed by a 4.5 h incubation at 40° C. The reaction mixture was cooled to RT before iodoacetic acid (0.5 M in 1 M NaOH, 55 μL) was added and the incubation continued in the dark for 30 min at RT. A Nanosep omega (Registered) spin column (3K molecular weight cut off, PALL Life Sciences) was used to remove salts, DTT and iodoacetic acid and the protein concentration was determined using the BCA protein assay (Pierce). The effect of reduced and alkylated NaD1 (NaD1R&A) on the growth of Fusarium oxysporum (Fov) was measured as described herein.
as §1

The subject of test [3] is Fov hyphae. Put plainly: Uptake of NaD1 into hyphae (immunogold EM, bimane fluorescence, immunoblot). It is filed as cell-based, Fusarium oxysporum f. sp. vasinfectum. The procedure:
Fov hyphae were grown as described above prior to the addition of NaD1 (10 μM final concentration) to 1 mL of the culture. Samples (100 μL) were collected after 0, 5, 10, 30, 60, 90 and 120 min. Hyphae were collected by centrifugation (10 min, 10,000×g) and the supernatant was stored at −20° C. for analysis. Hyphae were washed (2×10 min) with KCl (0.6 M) to remove any ionically bound protein before they were resuspended in 50 mM CAPS buffer (pH 10.0) containing 10 mM DTT for 20 min. Hyphae were collected by centrifugation and the supernatant, containing cell wall proteins, was collected for analysis. The pellet (containing cells) was resuspended in water and the cells were lysed using glass beads (Sigma, 60 mg) and vortexing (3×10 min). Cellular debris was removed by centrifugation (16,000×g, 10 min) and the supernatant collected for analysis. All samples were then analyzed by SDS-PAGE and immunoblotting.
Fov hyphae were grown for 18 h in half-strength PDB (5 mL) with vigorous shaking at 25° C. from a starting spore suspension of 5×10^4/mL. Hyphae were then treated with 2 μM NaD1 or an equivalent volume of water for 2 h at RT with gentle agitation, and were washed twice in 0.6 M KCl and three times in PBS before fixation in 4% (w/v) paraformaldehyde in PBS for 1 h at 4° C. Hyphae were again washed three times in PBS before dehydration in a standard ethanol series (15 min each, 50%, 70% and 90% ethanol, 3×15 min 100% ethanol). Hyphae were then infiltrated with LR White resin (ProSciTech) for 1 h at RT, followed by 18 h at 4° C., 1 h at RT and 24 h at 60° C. Fresh LR White resin was used at each step. Ultrathin sections were cut and placed on Formvar coated gold grids.
Grids were blocked with PBS containing 8% (w/v) BSA and 1% (v/v) Triton X-100 for 1 h and labeled with α-NaD1 antibodies (2 μg/mL in blocking buffer) for 1 h. Grids were washed in blocking buffer (3×10 min) and labeled with 15 nm gold particle labeled goat α-rabbit IgG antibodies (ProSciTech diluted 1 in 20 for 1 h. Grids were washed again in blocking solution (3×10 min) followed by water (15 min) before being air-dried. A JEOL JEM2010HC x e80 KV transmission electron microscope was used to examine labeled grids. Pictures were taken on Kodak EM film (ProSciTech) and developed in a dark room before scanning on a Hewlett Packard Scanjet 5P scanner.
Hyphae grown for 18 h as described were treated with NaD1-bimane (2 μM) for between 10 min and 6 h. Hyphae were then visualized by fluorescence microscopy using an MWU filter (excitation wavelength of 330-385 nm).
For orientation: In western blotting, separated proteins are transferred to a membrane and probed.

Where only a bound is given, the exact number is not on record here.

This is an account of results in patent US9889184B2 (priority 2008, dated 2018).

Take “NaD1: plant defensin isolated from floral tissue of Nicotiana alata (SEQ ID NO:12) (RECKTESNTFPGICITKPPCRKACISEKFTDGHCSKILRRCLCTKPC; Nicotiana alata (NaD1))”: in the test on Fov infection, the “protection from the pathological effects of Fov infection” value is “significantly protected”. For the same substance, in the test on Fov hyphae [1] (NaD1 0.1, 2 and 10 μM or 10 μM NaD1R&A), the “ROS production, DHR123 fluorescence” value is “concentration-dependent increase in fluorescence”. The “DHR123 oxidation by NaD1 in the presence of ROS scavengers” value in the test with Fov hyphae [1] (ascorbic acid or TEMPO present) is on record as “did not alter the level of fluorescence”. For the same substance, in the test on Fov, the “Ca2+ more antagonistic than Mg2+” value is “greater than 20 times”, the “CaCl2 concentration giving complete inactivation of NaD1” value is reported as below 2 mM and the “MgCl2 concentration giving complete inactivation of NaD1” value is on record as 50 mM. The growth retarded in test [2] (1 μM NaD1, Fov) is on record as 50%. For the same substance, in test [2] (5 μM NaD1, Fov), the growth inhibited entry is listed as “more than 80%”. The “growth inhibition of Fov by NaD1 with ROS scavenger” value in test [2] (10 mM ascorbic acid) is reported as “nor did the presence of 10 mM ascorbic acid affect growth inhibition”. In addition, the IC50 (in general, the concentration that gives 50% inhibition) in test [2] (Fusarium oxysporum f. sp. vasinfectum) was 1000 nM. For the same substance, the “growth inhibition of Fov” value in test [2] (NaD1 0.1 μM) is reported as “no growth inhibition was observed”. Moreover, the “growth inhibition of Fov” value in test [2] (NaD1 concentration used for microscopy (10 μM)) is on record as above 90%. Moreover, in the test with Fov hyphae [3] (NaD1 10 μM, 2 h, many, but not all, hyphae), the “NaD1 in cytoplasm of treated hyphae, immunogold α-NaD1 labeling” value is on record as “heavily labeled”. In addition, the “time after which NaD1 uptake occurred” value with Fov hyphae [3] (SDS-PAGE and immunoblotting of cytoplasmic contents) turned out to be 20 min. In addition, the “time until which NaD1 in the Fov cytoplasm increased” value with Fov hyphae [3] (immunoblotting, decreased slightly afterwards) was 60 min.
